Here are results for five compounds from patent US20120277265A1, “NOVEL POLYQUINOLINE DERIVATIVES AND THE THERAPEUTIC USE THEREOF” (CENTRE NATIONAL DE LA RECHERCHE SCIENTIFIQUE (C.N.R.S.), priority 2005, published 2012).

Molecules are shown by their SMILES. Read-outs that look alike come from different tables or passages of the source.

The subject of data set [1] is Salmonella tiphimurium TA98. The data set is described as follows: AMES test, TA98. The source says: (§1) AMES test: The method is adapted from D. M. Maron and B. N. Ames, Mutat.
(§2) The test involves evaluating the potential of the tested molecules to induce mutation which is reverse to the histidine locus of these lines. These two lines were provided by Dr. Bruce N. Ames (University of California, Berkeley, USA). They are resistant to Ampicillin and sensitive to Tetracycline. They are not mutant toward rfa, UvγV and UvγA. The line TA98 (his D3052) contains a mutation of reading phase (GC) whereas the line TA100 (his G46) contains a substitution of base pair (GC).
(§3) The compounds to be tested were dissolved in 100% of DMSO (the solvent) and diluted logarithmically (by a factor of 10) so as to obtain 4 test concentrations of 30,000; 3,000; 300 and 30 μg/ml. Each series of 0.1 ml of stock solution to be tested, 0.1 ml of test line and of culture medium with or without 0.5 ml of enzymatic homogenate (S9) of rat liver microsome were mixed with 2 ml of molten agarose (containing 0.5 mM of histidine and 0.5 mM of biotin). This mixture was placed on the surface of a plate of minimal agarose glucose medium (30 ml for each Petri dish) so as to obtain final concentrations of compound to be tested of 3,000; 300; 30 and 3 μγ/plate. The plates were then incubated at 37° C. for 48 hours. […] The revertant colonies of the test lines were counted using a colony counter (Sigma). […] A compound inducing a number of colonies <50% of cells obtained for the solvent alone was deemed to be toxic for the bacteria tested. All the experiments were carried out in triplicate.

The nature of data set [2]: UV-visible spectrophotometric titration with ZnCl2 (metal/ligand stoichiometry). Particulars: 15 μM ligand; Tris-HCl buffer pH 7.4/organic solvent, per ligand as in Table 3 column Solvent. It is filed as binding. The protocol: (§4) An organic solvent (CH3OH, dioxane or DMSO) was added in order to achieve good solubility of the ligands and metal complexes in the concentrations used in these experiments. Exact proportions of the organic solvent/buffer mixture are specified for each UV-visible characterisation of the different ligands or metal complexes.
(§5) Aliquot portions of concentrated CuCl2 or ZnCl2 solutions (M) are added to a 15 μM ligand solution so as to induce only negligible variations in volume. After each addition, changes in absorption spectra are observed immediately and are consistent between two additions, which corresponds to a rapid complexing process. The exact absorption values relating to each ligand and the copper(II) or zinc(II) complexes thereof are detailed hereinafter in the Experimental part (in the Synthesis part for ligands and hereinafter for the metal complexes).
(§6) The stoichiometry of the different ligands (L) for Cu(II) or ZN(II) have therefore been determined spectrophotometrically by metal ion titration. In this example, for an M/L ratio increasing from 0 to 1, π→π* with transition, centred at 251 nm for the free ligand, is shifted to a lower energy with a concomitant appearance of an absorption band in the visible region of the spectrum (λmax to 383 nm), which is probably the result of an MLCT transition. For greater M/L ratios, no additional change in the UV-visible absorption spectra is observed.

The nature of data set [3]: UV-visible spectrophotometric titration with CuCl2 (metal/ligand stoichiometry). Format: binding. To be noted: 15 μM ligand; Tris-HCl buffer pH 7.4/organic solvent, per ligand as in Table 3 column Solvent. The protocol:
as §4, §5, §6

Data set [4] has as its target T1, copper complexes of Aβ1-42 peptide (Homo sapiens, UniProt P05067).
T1 construct: The β-amyloid peptide Aβ1-42 (Aβ1-42) was synthesised, purified (to a purity greater than 95%); made in house; host or cells: chemical peptide synthesis (no expression host)
The experiment in a line: Hydrogen peroxide produced by Aβ1-42 in the presence of CuCl2, ascorbate, air and ligand (Amplex Red H2O2/HRP). To be noted: for amount of H2O2, 0.2 μM Aβ1-42 Cu/Aβ = 2 / amount of H2O2, 0.5 μM Aβ1-42 Cu/Aβ = 0.75: CuCl2 0.4 μM, ascorbate 10 μM, air. Format: biochemical.

Assay in data set [5]: as above
It is filed as biochemical. Particulars: CuCl2 0.4 μM, ascorbate 10 μM, air.

The subject of data set [6] is Salmonella tiphimurium TA100. The data set is described as follows: AMES test, TA100.
Text: as §1, §2, §3

Data set [7] in a line: Determination of log D7.4 (1-octanol / Tris-HCl buffer). Format: physicochemical. Particulars: 1-octanol / 20 mM Tris-HCl buffer containing 150 mM NaCl (pH = 7.4) (1/1, v/v). The essentials: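 Ligand partitioned between 1-octanol and 20 mM Tris-HCl pH 7.4 with 150 mM NaCl: vortexed 3 min at ambient temperature, centrifuged, each phase quantified by UV-visible spectrophotometry. log D7.4 is log of octanol/buffer concentration ratio, measured three times.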

Where [8] appears, read: value per plate, Addition of S9: no.
Setting [9] is: value per plate, Addition of S9: yes.

T1 sequence (P05067 672-713 limits assumed, one chain of several): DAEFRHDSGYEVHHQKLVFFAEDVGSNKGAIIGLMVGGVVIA

For the compound `Oc1cccc2ccc(C(F)(F)c3ccc4cccc(O)c4n3)nc12` [Compound 5, 2,2′-(Difluoromethanediyl)-bis(8-hydroxyquinoline)], the “TA98 Cytotoxicity” value in data set [1] (setting [8]) and in data set [1] (setting [9]) was over 3000 µg each time. Besides, the “TA98 Mutagenic effect” value in data set [1] (setting [8]) and in data set [1] (setting [9]) was over 3000 µg throughout. Further, in data set [2], the “Complex observed by titration with Zn^II (observed L/Zn(II) stoichiometry)” value (shortened to “Complex observed by titration with Zn^II”) is on record as “LZn^II(1/1)”. Also, the “Complex observed by titration with Cu^II (observed L/Cu(II) stoichiometry)” value (“Complex observed by titration with Cu^II” below) in data set [3] is given as “LCu^II(1/1)”. The “amount of H2O2, 0.2 μM Aβ1-42 Cu/Aβ = 2” value in data set [4] (ligand 1 eq/Cu(II) (0.4 μM)) came out at 0.55 ± 0.08 nmol. Further, the “amount of H2O2, without Aβ1-42” value in data set [5] (ligand 1 eq/Cu(II) (0.4 μM)) worked out at 0.39 nmol. Further, the bactericidal effect in data set [6] (TA100 line in the absence of S9) was at least 300 μg/plate. For the same compound, the figures for the “TA100 Cytotoxicity” value in data set [6] (setting [8]) and in data set [6] (setting [9]) were 300 µg and over 3000 µg, respectively. For the same compound, the “TA100 Mutagenic effect” value in data set [6] (setting [9]) is over 3000 µg. Besides, in data set [7], the logD at 3 min is 3.8 ± 0.1.

On to `CC(C)(c1ccc2c(Cl)ccc(O)c2n1)c1ccc2c(Cl)ccc(O)c2n1` [Compound 4, 2,2′-(2,2-Propanediyl)-bis(5-chloro-8-hydroxyquinoline)], for which the “Complex observed by titration with Zn^II” value in data set [2] is “LZn^II(1/1)”. The “Complex observed by titration with Cu^II” value in data set [3] is listed as “Cu^II(1/1)”. For the same compound, in data set [4] (ligand 1 eq/Cu(II) (0.4 μM)), the “amount of H2O2, 0.2 μM Aβ1-42 Cu/Aβ = 2” value is 0.37 ± 0.09 nmol and the “amount of H2O2, 0.5 μM Aβ1-42 Cu/Aβ = 0.75” value was 0.35 nmol. In addition, in data set [5] (ligand 1 eq/Cu(II) (0.4 μM)), the “amount of H2O2, without Aβ1-42” value was 0.12 nmol. The compound also gave a log distribution coefficient (logD) at 3 min in data set [7] of 4.9 ± 0.1.

Turning to `CC(C)(c1ccc2cccc(O)c2n1)c1ccc2cccc(O)c2n1` [Compound 3, 2,2′-(2,2-propanediyl)-bis(8-hydroxyquinoline)], the “TA98 Cytotoxicity” value in data set [1] (setting [8]) and in data set [1] (setting [9]) was over 3000 µg in each case. Besides, the “TA98 Mutagenic effect” value in data set [1] (setting [8]) and in data set [1] (setting [9]) was over 3000 µg each time. The “Complex observed by titration with Zn^II” value in data set [2] is on record as “LZn^II(1/1)”. The “H2O2 production as a function of the Cu/Aβ1-42 ratio” value in data set [4] (FIG. 11, 1 equivalent of ligand per Cu(II) (0.4 μM), Aβ1-42 0.2 to 0.53 μM) is recorded as “virtually inhibit H2O2 production”. Moreover, the figures for the “amount of H2O2, 0.2 μM Aβ1-42 Cu/Aβ = 2” value in data set [4] (ligand 0.5 eq/Cu(II)), in data set [4] (ligand 1 eq/Cu(II) (0.4 μM)) and in data set [4] (ligand 1.5 eq/Cu(II)) were 0.94 nmol, 0.71 ± 0.02 nmol and 0.49 nmol, respectively. Moreover, the “amount of H2O2, 0.5 μM Aβ1-42 Cu/Aβ = 0.75” value in data set [4] (ligand 1 eq/Cu(II) (0.4 μM)) came out at 0.55 nmol. Moreover, the “amount of H2O2, without Aβ1-42” value was 2.12 nmol in data set [5] (ligand 0.5 eq/Cu(II)) and 0.84 nmol in data set [5] (ligand 1 eq/Cu(II) (0.4 μM)). For the same compound, the “TA100 Cytotoxicity” value in data set [6] (setting [8]) and in data set [6] (setting [9]) was over 3000 µg each time. Further, the “TA100 Mutagenic effect” value in data set [6] (setting [8]) and in data set [6] (setting [9]) was over 3000 µg throughout. In data set [7], this compound returned a logD at 3 min of 4.4 ± 0.1.

With `c1cnc2c(Nc3cccc4cccnc34)cccc2c1` [Compound 12, Bis(8-quinoline)amine], in data set [1], the “TA98 Mutagenic effect” value is over 3000 µg. Further, the “TA98 Cytotoxicity” value in data set [1] (setting [8]) and in data set [1] (setting [9]) was over 3000 µg in each case. Further, the “Complex observed by titration with Zn^II” value in data set [2] was “LZn^II(1/1)”. Moreover, the “Complex observed by titration with Cu^II” value in data set [3] is given as “LCu^II(1/1)”. For the same compound, in data set [4] (ligand 1 eq/Cu(II) (0.4 μM)), the “amount of H2O2, 0.2 μM Aβ1-42 Cu/Aβ = 2” value worked out at 0.47 ± 0.09 nmol. Further, the “amount of H2O2, without Aβ1-42” value in data set [5] (ligand 1 eq/Cu(II) (0.4 μM)) stood at 0.40 nmol. Besides, the “TA100 Mutagenic effect” value in data set [6] is over 3000 µg. For the same compound, the “TA100 Cytotoxicity” value in data set [6] (setting [8]) and in data set [6] (setting [9]) was over 3000 µg throughout. Moreover, the “log D7.4” value in data set [7] is reported as 3.5 ± 0.1.

In the case of `O=C(c1ccc2cccc(O)c2n1)c1ccc2cccc(O)c2n1` [Compound 6, Bis(8-hydroxy-2-quinoline)methanone], the “Complex observed by titration with Zn^II” value in data set [2] is on record as “LZn^II(1/1)”. Further, the “Complex observed by titration with Cu^II” value in data set [3] was “LCu^II(1/1)”. In data set [4] (ligand 1 eq/Cu(II) (0.4 μM)), the “amount of H2O2, 0.2 μM Aβ1-42 Cu/Aβ = 2” value came to 0.86 ± 0.11 nmol. Further, in data set [5] (ligand 1 eq/Cu(II) (0.4 μM)), the “amount of H2O2, without Aβ1-42” value stood at 0.82 nmol. In addition, the “log D7.4” value in data set [7] came out at 3.9 ± 0.1.
